This is an account of results in patent US9540299B2, “MTOR-independent activator of TFEB for autophagy enhancement and uses thereof” (Hong Kong Baptist University, priority 2015, dated 2017).

The test system of this test is N2a cells. The test can be described thus: LC3-II levels by western blot in N2a cells (autophagy induction). Format: cell-based, mouse. Particulars: for LC3-II levels in the presence of chloroquine compared with CQ treatment alone / LC3-II levels compared to the vehicle control: 12 h; for LC3-II levels in the presence of chloroquine compared with CQ treatment alone / LC3-II levels compared to the vehicle control / LC3-II levels in cells depleted of Atg5 by siRNA: analogs 1 μM; for LC3-II levels in the presence of chloroquine compared with CQ treatment alone: CQ 20 μM; for LC3-II levels compared to the vehicle control / LC3-II levels in cells depleted of Atg5 by siRNA: curcumin 10 μM; for LC3-II levels compared to the vehicle control: vs 0.1% DMSO; for LC3-II levels in cells depleted of Atg5 by siRNA: siAtg5 72 h then compound 12 h. The procedure:
N2a cells were treated with curcumin (Cur, 10 μM) and its analogs (1 μM) for 12 h (FIG. 2A). N2a cells were treated with Cur (10 μM), analogs A2, B3 and C1 (1 μM) with or without chloroquine (CQ, 20 μM) for 12 h (FIG. 2B). N2a cells were transfected with non-target siRNA (siNT) or Atg5 siRNA (siAtg5, 50 nM) for 72 h and then treated with Cur (10 μM) and analogs A2, B3 and C1 (1 μM) for 12 h (FIG. 2C). The expression of LC3-II is determined by western blot. Relative intensity is normalized to that of ACTB/β-actin. Data are presented as the mean±SD from three independent experiments. *p<0.05 vs. the control (0.1% DMSO); #p<0.05 vs. CQ treatment alone. N. S.=not significant.
N2a cells are treated with curcumin E series analogs (1 μM) for 12 hours. The expression of LC3-II is shown in Western blot (FIG. 13A). LC3-II relative intensity is normalized to that of ACTB/β-actin. Quantification data (FIG. 13B) are presented as the mean±SD from three independent experiments. *p<0.05 vs. the control (0.1% DMSO).
N2a cells are treated with E2, E3 and E4 (1 μM) in the presence or absence of chloroquine (CQ, 20 μM) for 12 hours. The expression of LC3-II is shown in Western blot (FIG. 14A). LC3-II relative intensity is normalized to that of ACTB/β-actin. Quantification data (FIG. 14B) are presented as the mean±SD from three independent experiments. *p<0.05 vs. the control (0.1% DMSO); ^#p<0.05 vs. CQ treatment alone.
N2a cells are treated with E4 for 12 hours. The expression of LC3-II is determined by Western blotting (FIG. 20A). LC3-II relative intensity is normalized to that of ACTB/β-actin. Quantification data (FIG. 20B) are presented as the mean±SD from three independent experiments. *p<0.05, **p<0.01 vs. the control (0.1% DMSO).
N2a cells are transfected with non-target siRNA (Si-NT) and TFEB siRNA. The levels of TFEB is examined by Western blotting (FIG. 27A) analysis and quantified (FIG. 27B). The effects of knock-down the expression of TFEB on the expression of LC3-II levels induced by E4 (1 μM) is also examined by Western blotting (FIG. 27C). Quantification data are presented as the mean±SD from three independent experiments (FIG. 27D). *p<0.05 vs. the control (0.1% DMSO), # p<0.05 vs. CQ alone.
N2a, Hela and Hela cells stably expressing 3×-Flag-TFEB are cultured in DMEM supplemented with 10% FBS. SH-SY5Y cells are cultured in DMEM/F12 supplemented with 10% FBS. For drug treatment, the full medium is replaced by fresh Opti-MEM I and then the compounds (in 0.1% DMSO) are added to the cells and incubated for 12 h. Inducible PC12 cells overexpressing SNCA (WT and A53T) (a kind gift from Prof. David C. Rubinsztein at Cambridge University) are grown in DMEM supplemented with 10% horse serum, 5% FBS, 50 μg/ml G418, and 150 μg/ml hygromycin B at 37° C., 10% CO2. Cells are treated with 2 μg/ml doxycycline (Dox) for 24 h to induce SNCA expression. The full medium is changed to Opti-MEM I containing the testing compounds for another 48 h.
Mouse Atg5 siRNA (25 nM) or human TFEB (100 nM) siRNA and the non-target siRNAs are transfected with Lipofectamine RNAiMAX (13778030, Invitrogen) and incubated at 37° C. for 72 h.
Cells are lysed on ice in 1× Lysis Buffer (9803, Life Technologies) with complete protease inhibitor mixture (04693124001, Roche Applied Science). Animal tissues are homogenized in nine volumes of ice-cold PBS supplemented with protease inhibitors. Cytosolic and nuclear fractions are isolated using protocols similar to those described previously. Anti-Flag or TFEB antibody is added to the whole cell lysates and Dynabeads® Protein G (10003D, Life Technologies) is used for immunoprecipitation. Proteins are separated by 10-15% SDS-PAGE, transferred, and blotted with the antibodies described. The blots are then incubated with secondary antibodies or the Clean-Blot IP Detection Reagent (21230, Thermo Scientific) at room temperature for 1 h. The protein signals are detected by ECL kit (32106, Pierce) and quantified using ImageJ software. […]
(In western blotting, separated proteins are transferred to a membrane and probed.)

As for `O=C(/C=C/c1cccc(C(F)(F)F)c1)/C=C/c1cccc(C(F)(F)F)c1` [A2, 1,5-bis(3-(trifluoromethyl)phenyl)penta-1,4-dien-3-one], the “LC3-II levels in the presence of chloroquine compared with CQ treatment alone” value was “further increase”, the “LC3-II levels compared to the vehicle control” value is reported as “significantly increase” and the “LC3-II levels in cells depleted of Atg5 by siRNA” value (from here on “LC3-II levels in cells depleted”) is given as “failed to increase”.
Taken in the same sequence, the figures for `O=C(/C=C/c1ccc(O)cc1)/C=C/c1ccc(O)cc1` [B3, 1,5-bis(4-hydroxyphenyl)penta-1,4-dien-3-one] were “further increase”, “significantly increase” and “failed to increase”.
As for `COc1ccccc1/C=C/C(=O)/C=C/c1ccccc1OC` [C1, 1,5-bis(2-methoxyphenyl)penta-1,4-dien-3-one], the “LC3-II levels in the presence of chloroquine compared with CQ treatment alone” value was “further increase”, the “LC3-II levels compared to the vehicle control” value is “significantly increase” and the “LC3-II levels in cells depleted” value is given as “failed to increase”. Moreover, where the note is “Si-NT, with CQ”, the “LC3-II levels plus CQ compared with CQ treatment alone in cells transfected with non-target siRNA” value is “further increased”.
As to `O=C(/C=C/c1ccccc1Cl)/C=C/c1ccccc1Cl` [E2], the “LC3-II levels in the presence of chloroquine compared with CQ treatment alone” value is reported as “further increase” and the “LC3-II levels compared to the vehicle control” value is “significantly increase”.
For `O=C(/C=C/c1ccccc1Br)/C=C/c1ccccc1Br` [E3], the “LC3-II levels in the presence of chloroquine compared with CQ treatment alone” value is “further increase” and the “LC3-II levels compared to the vehicle control” value is “significantly increase”.
Regarding `O=C(/C=C/c1ccccc1I)/C=C/c1ccccc1I` [E4], the “LC3-II levels in the presence of chloroquine compared with CQ treatment alone” value is “further increase” and the “LC3-II levels compared to the vehicle control” value is “significantly increase”. Moreover, the “expression of LC3-II, dose-dependent” value (0-1 μM, 12 hours, dose-dependent manner) is “significantly increase”. Also, the “autophagy-enhancing effect, comparison among E series compounds tested” value (1 μM, 12 hours) is on record as “best autophagy-enhancing effect”. Also, for the setting “Si-NT, 1 μM”, the “LC3-II levels compared with the control in cells transfected with non-target siRNA” value is on record as “significantly increases”. Also, the “induced autophagy (LC3-II levels) after knock-down of TFEB” value (TFEB siRNA, 1 μM) is reported as “attenuated”.
Regarding `COc1cc(/C=C/C(=O)CC(=O)/C=C/c2ccc(O)c(OC)c2)ccc1O` [curcumin, Curcumin, reference compound], the “LC3-II levels compared to the vehicle control” value is recorded as “significantly increase” and the “LC3-II levels in cells depleted” value was “failed to increase”.
